Measured values as given in patent EP4273147A1, “SUBSTITUTED SPIROLACTAMS, SALTS THEREOF AND THEIR USE AS HERBICIDALLY ACTIVE SUBSTANCES” (Bayer Aktiengesellschaft, priority 2022, dated 2023).

What was measured:
POAAN [1] = assay: Herbicidal pre-emergence action (Table A7); format: in vivo, Poa annua; details: application rate 320 g/ha; visual grading after ca. 3 weeks
In short: (§1)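 For this pre-emergence setup, sandy loam pots received seeds of one monocot and one dicot weed species each. The seeds were then covered with soil.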

TRZAS [2] = assay: Post-emergence effects on crop plants (Table F2); format: in vivo, Triticum aestivum; details: application rate 80 g/ha, crop plant TRZAS
Excerpt: (§2) 2 to 3 weeks after sowing, the test plants were sprayed in the single-leaf stage.

ECHCG [3] = assay: Herbicidal pre-emergence action, section C (Table C6); format: in vivo, Echinochloa crus-galli; details: application rate 80 g/ha; visual grading after ca. 3 weeks
LOLRI [4] = assay: Herbicidal pre-emergence action (Table A3); format: in vivo, Lolium rigidum; details: application rate 320 g/ha; visual grading after ca. 3 weeks
In short: as §1

STEME [5] = assay: Herbicidal pre-emergence action (Table A6); format: in vivo, Stellaria media; details: application rate 320 g/ha; visual grading after ca. 3 weeks
In short: as §1

SETVI [6] = assay: Herbicidal pre-emergence action, section C (Table C10); format: in vivo, Setaria viridis; details: application rate 80 g/ha; visual grading after ca. 3 weeks
ZEAMX = assay: Post-emergence effects on crop plants (Table F1); format: in vivo, Zea mays; details: application rate 80 g/ha, crop plant ZEAMX
Excerpt: as §2

AMARE [7] = assay: Herbicidal post-emergence action (Table B11); format: in vivo, Amaranthus retroflexus; details: application rate 1280 g/ha
In short: (§3)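 Treated at one-leaf stage (2–3 weeks after sowing in sandy loam, greenhouse-grown). Visual efficacy rating after about 3 weeks; 0% = like controls, 100% = complete kill.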

ALOMY [8] = assay: Herbicidal pre-emergence action (Table A9); format: in vivo, Alopecurus myosuroides; details: application rate 320 g/ha; visual grading after ca. 3 weeks
In short: as §1

ABUTH [9] = assay: Herbicidal pre-emergence action, section C (Table C1); format: in vivo, Abutilon theophrasti; details: application rate 320 g/ha; visual grading after ca. 3 weeks
BRSNW [10] = assay: Pre-emergence effects on crop plants (Table D5); format: in vivo, Brassica napus; details: crop plant; application rate 80 g/ha; visual grading after ca. 3 weeks
MATIN [11] = assay: Herbicidal pre-emergence action, section C (Table C8); format: in vivo, Matricaria inodora; details: application rate 320 g/ha; visual grading after ca. 3 weeks
ECHCG [12] = assay: Herbicidal post-emergence action, section E (Table E5); format: in vivo, Echinochloa crus-galli; details: application rate 80 g/ha; assessed visually after ca. 3 weeks
Excerpt: as §2

AMARE [13] = assay: Herbicidal pre-emergence action (Table A8); format: in vivo, Amaranthus retroflexus; details: application rate 1280 g/ha; visual grading after ca. 3 weeks vs untreated controls (100% = plants have died off, 0% = as control plants)
In short: as §1

STEME [14] = assay: Herbicidal post-emergence action (Table B9); format: in vivo, Stellaria media; details: application rate 1280 g/ha
Description: (§4) Seeds of mono- and dicotyledonous weed plants were placed in plastic pots in sandy loam soil (doubly sown with in each case one species of mono- or dicotyledonous weed plants per pot), covered with soil and cultivated in a greenhouse under controlled growth conditions. 2 to 3 weeks after sowing, the test plants were treated at the one-leaf stage. […] After the test plants had been kept in the greenhouse under optimum growth conditions for about 3 weeks, the activity of the preparations was rated visually in comparison to untreated controls. For example, 100% activity = the plants have died, 0% activity = like control plants.

SETVI [15] = assay: Herbicidal post-emergence action, section E (Table E8); format: in vivo, Setaria viridis; details: application rate 320 g/ha; assessed visually after ca. 3 weeks
Excerpt: as §2

VERPE [16] = assay: Herbicidal pre-emergence action, section C (Table C11); format: in vivo, Veronica persica; details: application rate 320 g/ha; visual grading after ca. 3 weeks
VERPE [17] = assay: Herbicidal pre-emergence action (Table A11); format: in vivo, Veronica persica; details: application rate 320 g/ha; visual grading after ca. 3 weeks
In short: as §1

SETVI [18] = assay: Herbicidal post-emergence action (Table B8); format: in vivo, Setaria viridis; details: application rate 1280 g/ha
In short: as §3

LOLRI [19] = assay: Herbicidal post-emergence action (Table B5); format: in vivo, Lolium rigidum; details: application rate 1280 g/ha; rated visually after about 3 weeks
Description: as §4

SETVI [20] = assay: Herbicidal pre-emergence action (Table A5); format: in vivo, Setaria viridis; details: application rate 320 g/ha; visual grading after ca. 3 weeks
In short: as §1

KCHSC = assay: Herbicidal pre-emergence action (Table A10); format: in vivo, Kochia scoparia; details: application rate 1280 g/ha; visual grading after ca. 3 weeks
In short: as §1

ALOMY [21] = assay: Herbicidal post-emergence action, section E (Table E2); format: in vivo, Alopecurus myosuroides; details: application rate 320 g/ha; assessed visually after ca. 3 weeks
Excerpt: as §2

ECHCG [22] = assay: Herbicidal post-emergence action (Table B3); format: in vivo, Echinochloa crus-galli; details: application rate 320 g/ha; rated visually after about 3 weeks
In short: as §3

ALOMY [23] = assay: Herbicidal post-emergence action (Table B2); format: in vivo, Alopecurus myosuroides; details: application rate 320 g/ha; rated visually after about 3 weeks
Description: as §4

BRSNW [24] = assay: Post-emergence effects on crop plants (Table F5); format: in vivo, Brassica napus; details: application rate 80 g/ha, crop plant BRSNW
Excerpt: as §2

ORYZA [25] = assay: Post-emergence effects on crop plants (Table F3); format: in vivo, Oryza sativa; details: application rate 320 g/ha, crop plant ORYZA
Excerpt: as §2

MATIN [26] = assay: Herbicidal pre-emergence action (Table A4); format: in vivo, Matricaria inodora; details: application rate 320 g/ha; visual grading after ca. 3 weeks
In short: as §1

VERPE [27] = assay: Herbicidal post-emergence action, section E (Table E9); format: in vivo, Veronica persica; details: application rate 320 g/ha; assessed visually after ca. 3 weeks
Excerpt: as §2

VIOTR [28] = assay: Herbicidal post-emergence action, section E (Table E10); format: in vivo, Viola tricolor; details: application rate 320 g/ha; assessed visually after ca. 3 weeks
Excerpt: as §2

ABUTH [29] = assay: Herbicidal post-emergence action (Table B1); format: in vivo, Abutilon theophrasti; details: application rate 1280 g/ha; treated at one-leaf stage; rated visually after about 3 weeks vs untreated controls (100% = plants have died, 0% = like control plants)
In short: as §3

TRZAS [30] = assay: Pre-emergence effects on crop plants (Table D2); format: in vivo, Triticum aestivum; details: crop plant; application rate 80 g/ha; visual grading after ca. 3 weeks
VIOTR [31] = assay: Herbicidal pre-emergence action, section C (Table C12); format: in vivo, Viola tricolor; details: application rate 80 g/ha; visual grading after ca. 3 weeks
MATIN [32] = assay: Herbicidal post-emergence action (Table B6); format: in vivo, Matricaria inodora; details: application rate 1280 g/ha; rated visually after about 3 weeks
In short: as §3

POAAN [33] = assay: Herbicidal post-emergence action (Table B7); format: in vivo, Poa annua; details: application rate 320 g/ha
In short: as §3

POLCO = assay: Herbicidal pre-emergence action, section C (Table C9); format: in vivo, Polygonum convolvulus; details: application rate 320 g/ha; visual grading after ca. 3 weeks
ABUTH [34] = assay: Herbicidal pre-emergence action (Table A1); format: in vivo, Abutilon theophrasti; details: application rate 320 g/ha; visual grading after ca. 3 weeks vs untreated controls (100% = plants have died off, 0% = as control plants)
In short: as §1

LOLRI [35] = assay: Herbicidal pre-emergence action, section C (Table C7); format: in vivo, Lolium rigidum; details: application rate 80 g/ha; visual grading after ca. 3 weeks
ORYZA [36] = assay: Pre-emergence effects on crop plants (Table D3); details: crop plant; application rate 80 g/ha; visual grading after ca. 3 weeks
GLXMA = assay: Post-emergence effects on crop plants (Table F4); format: in vivo, Glycine max; details: application rate 80 g/ha, crop plant GLXMA
Excerpt: as §2

ALOMY [37] = assay: Herbicidal pre-emergence action, section C (Table C2); format: in vivo, Alopecurus myosuroides; details: application rate 320 g/ha; visual grading after ca. 3 weeks
ECHCG [38] = assay: Herbicidal pre-emergence action (Table A2); format: in vivo, Echinochloa crus-galli; details: application rate 320 g/ha; visual grading after ca. 3 weeks
In short: as §1

VERPE [39] = assay: Herbicidal post-emergence action (Table B10); format: in vivo, Veronica persica; details: application rate 320 g/ha
In short: as §3

pre-emergence activity against BRSNW (BRSNW [10]): 0%
pre-emergence activity against TRZAS (TRZAS [30]): 20%
pre-emergence activity against ORYZA (ORYZA [36]): 20%
Compound: O=C1N(Cc2ccccc2F)CCCC12CCCN(Cc1ccccc1F)C2=O (racemic) [I-005]
pre-emergence activity against POAAN (POAAN [1]): 100%
post-emergence activity against TRZAS (TRZAS [2]): 20%
pre-emergence activity against ECHCG (ECHCG [3]): 100%
pre-emergence activity against LOLRI (LOLRI [4]): 100%
pre-emergence activity against STEME (STEME [5]): 90%
pre-emergence activity against SETVI (SETVI [6]): 100%
post-emergence activity against ZEAMX (ZEAMX): 20%
post-emergence activity against AMARE (AMARE [7]): 100%
pre-emergence activity against ALOMY (ALOMY [8]): 90%
pre-emergence activity against ABUTH (ABUTH [9]): 80%
pre-emergence activity against MATIN (MATIN [11]): 90%
post-emergence activity against ECHCG (ECHCG [12]): 80%
pre-emergence activity against AMARE (AMARE [13]): 90%
post-emergence activity against STEME (STEME [14]): 90%
post-emergence activity against SETVI (SETVI [15]): 90%
pre-emergence activity against VERPE (VERPE [16]): 80%
pre-emergence activity against VERPE (VERPE [17]): 100%
post-emergence activity against SETVI (SETVI [18]): 100%
post-emergence activity against LOLRI (LOLRI [19]): 90%
pre-emergence activity against SETVI (SETVI [20]): 100%
pre-emergence activity against KCHSC (KCHSC): 90%
post-emergence activity against ALOMY (ALOMY [21]): 90%
post-emergence activity against ECHCG (ECHCG [22]): 100%
post-emergence activity against ALOMY (ALOMY [23]): 90%
post-emergence activity against BRSNW (BRSNW [24]): 20%
post-emergence activity against ORYZA (ORYZA [25]): 0%
pre-emergence activity against MATIN (MATIN [26]): 100%
post-emergence activity against VERPE (VERPE [27]): 80%
post-emergence activity against VIOTR (VIOTR [28]): 80%
post-emergence activity against ABUTH (ABUTH [29]): 90%
pre-emergence activity against VIOTR (VIOTR [31]): 80%
post-emergence activity against MATIN (MATIN [32]): 100%
post-emergence activity against POAAN (POAAN [33]): 100%
pre-emergence activity against POLCO (POLCO): 80%
pre-emergence activity against ABUTH (ABUTH [34]): 90%
pre-emergence activity against LOLRI (LOLRI [35]): 80%
post-emergence activity against GLXMA (GLXMA): 20%
pre-emergence activity against ALOMY (ALOMY [37]): 100%
pre-emergence activity against ECHCG (ECHCG [38]): 100%
post-emergence activity against VERPE (VERPE [39]): 90%
